Active and inactive are the calls of the source.
Key:
[1] = target: DNA dC->dU-editing enzyme APOBEC-3A (Homo sapiens, UniProt P31941); experiment: APOBEC3A DNA deaminase inhibitors, dose response, biochemical (AID 504722); assay type: functional
[2] = target: DNA dC->dU-editing enzyme APOBEC-3G (Homo sapiens, UniProt Q9HC16); experiment: Dose Response confirmation of small molecule APOBEC3G DNA Deaminase Inhibitors via a fluorescence-based single-stranded DNA deaminase assay. [Related pubchem assays (depositor defined):AID493012, AID493028]; assay type: functional
Sequence of DNA dC->dU-editing enzyme APOBEC-3G (Q9HC16 whole entry): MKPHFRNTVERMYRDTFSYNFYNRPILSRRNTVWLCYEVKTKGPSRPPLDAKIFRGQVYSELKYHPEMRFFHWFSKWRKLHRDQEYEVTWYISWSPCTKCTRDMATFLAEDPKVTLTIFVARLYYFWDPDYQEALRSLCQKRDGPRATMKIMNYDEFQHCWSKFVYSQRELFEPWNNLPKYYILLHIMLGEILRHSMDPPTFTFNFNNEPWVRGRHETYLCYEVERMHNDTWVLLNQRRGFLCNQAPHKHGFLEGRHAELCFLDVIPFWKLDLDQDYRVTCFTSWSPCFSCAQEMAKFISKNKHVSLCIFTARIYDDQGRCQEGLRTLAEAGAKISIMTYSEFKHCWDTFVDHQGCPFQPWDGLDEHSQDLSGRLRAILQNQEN

[3] = system: HEK293; experiment: NOD2 signaling inhibitors in MDP-stimulated cells, cell-based, uHTS, luminescence (AID 2001); assay type: functional; conditions: Homo sapiens
[4] = target: Tumor necrosis factor (Homo sapiens, UniProt P01375); experiment: TNFa-triggered NF-kB activation inhibitors, SAR follow-up, cell-based, revised (AID 2337); assay type: functional
Sequence of Tumor necrosis factor (P01375 whole entry, the tested form may be a part): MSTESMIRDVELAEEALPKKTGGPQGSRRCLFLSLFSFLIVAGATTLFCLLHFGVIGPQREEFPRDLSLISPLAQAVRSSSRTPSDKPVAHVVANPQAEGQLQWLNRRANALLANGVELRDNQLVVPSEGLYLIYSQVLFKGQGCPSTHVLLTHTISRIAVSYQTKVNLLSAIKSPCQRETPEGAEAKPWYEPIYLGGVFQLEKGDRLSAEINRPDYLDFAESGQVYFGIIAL

[5] = target: Nucleotide-binding oligomerization domain-containing protein 2 (Homo sapiens, UniProt Q9HC29); experiment: NOD2 signaling inhibitors, cell-based, luminescence, uHTS, HEK293 (AID 1566); assay type: functional
Sequence of Nucleotide-binding oligomerization domain-containing protein 2 (Q9HC29 whole entry, the tested form may be a part): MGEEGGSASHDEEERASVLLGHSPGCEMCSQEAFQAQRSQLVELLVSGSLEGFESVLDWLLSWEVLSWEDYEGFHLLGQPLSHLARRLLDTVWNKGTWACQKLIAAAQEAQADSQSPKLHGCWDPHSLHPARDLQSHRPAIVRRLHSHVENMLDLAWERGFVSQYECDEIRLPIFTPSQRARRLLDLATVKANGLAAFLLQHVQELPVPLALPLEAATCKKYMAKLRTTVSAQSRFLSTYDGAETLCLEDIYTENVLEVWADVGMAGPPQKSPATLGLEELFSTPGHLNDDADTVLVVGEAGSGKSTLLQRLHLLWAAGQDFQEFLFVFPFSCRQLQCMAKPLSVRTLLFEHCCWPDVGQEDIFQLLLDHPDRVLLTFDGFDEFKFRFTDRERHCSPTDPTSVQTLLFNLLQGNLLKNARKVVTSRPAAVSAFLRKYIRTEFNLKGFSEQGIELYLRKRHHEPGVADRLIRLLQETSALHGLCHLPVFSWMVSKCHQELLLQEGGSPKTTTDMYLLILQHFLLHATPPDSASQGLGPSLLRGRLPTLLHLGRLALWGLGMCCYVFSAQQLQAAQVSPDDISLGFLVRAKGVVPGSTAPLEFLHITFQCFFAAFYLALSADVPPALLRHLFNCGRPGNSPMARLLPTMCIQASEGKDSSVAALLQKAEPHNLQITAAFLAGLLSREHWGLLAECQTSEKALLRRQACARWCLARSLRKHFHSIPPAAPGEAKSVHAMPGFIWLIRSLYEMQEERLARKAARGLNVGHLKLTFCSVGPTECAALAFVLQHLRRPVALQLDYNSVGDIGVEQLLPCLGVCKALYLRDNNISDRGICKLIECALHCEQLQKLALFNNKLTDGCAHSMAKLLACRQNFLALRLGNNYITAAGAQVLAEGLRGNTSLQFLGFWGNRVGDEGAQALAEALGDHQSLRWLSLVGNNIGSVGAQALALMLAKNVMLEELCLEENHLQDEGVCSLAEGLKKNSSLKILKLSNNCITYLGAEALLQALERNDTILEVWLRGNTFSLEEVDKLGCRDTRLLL

[6] = HepG2 cell cytotoxicity, dose response, cytotoxicity control for Shn3 inhibitor project, CellTiter-Glo, cherry-picked (AID 624134); assay type: functional, cell-based
[7] = target: T1, Serine/threonine-protein phosphatase (Candida dubliniensis (strain CD36 / CBS 7987 / NCPF 3949 / NRRLY-17841) (Yeast), UniProt B9W6M3); experiment: calcineurin pathway inhibitors in yeast reporter, dose response, S. cerevisiae, CDRE-lacZ, luminescence, secondary (AID 2388); assay type: functional, cell-based;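 note: yeast reporter cells carrying a calcineurin-responsive lacZ construct stimulated with calcium chloride; luminescent beta-galactosidase reporter signal in whole cells rather than isolated phosphatase activity; potency for inhibition where a drop in reporter signal means calcineurin blockade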
T1 sequence (B9W6M3 whole entry): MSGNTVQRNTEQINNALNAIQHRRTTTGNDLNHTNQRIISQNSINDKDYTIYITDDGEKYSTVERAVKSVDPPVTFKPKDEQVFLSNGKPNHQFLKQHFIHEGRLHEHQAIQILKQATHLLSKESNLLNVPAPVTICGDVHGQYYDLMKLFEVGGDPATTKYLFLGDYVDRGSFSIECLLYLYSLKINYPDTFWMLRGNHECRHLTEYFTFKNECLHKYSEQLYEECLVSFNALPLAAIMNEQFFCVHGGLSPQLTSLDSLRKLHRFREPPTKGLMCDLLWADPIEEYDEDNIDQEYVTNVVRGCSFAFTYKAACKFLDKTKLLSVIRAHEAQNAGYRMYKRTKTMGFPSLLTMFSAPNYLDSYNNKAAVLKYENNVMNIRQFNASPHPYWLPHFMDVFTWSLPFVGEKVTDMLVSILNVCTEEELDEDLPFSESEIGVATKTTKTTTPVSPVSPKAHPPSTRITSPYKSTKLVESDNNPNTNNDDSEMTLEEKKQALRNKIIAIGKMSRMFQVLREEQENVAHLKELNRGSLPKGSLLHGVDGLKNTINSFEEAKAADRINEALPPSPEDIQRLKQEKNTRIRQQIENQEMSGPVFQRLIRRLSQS

[8] = system: HEK293; experiment: cells; assay type: functional, cell-based; conditions: Homo sapiens
[9] = target: T2, Nucleotide-binding oligomerization domain-containing protein 1 (Homo sapiens, UniProt Q9Y239); experiment: NOD1 signaling inhibitors, SAR follow-up, revised (AID 2333); assay type: functional
T2 sequence (Q9Y239 whole entry): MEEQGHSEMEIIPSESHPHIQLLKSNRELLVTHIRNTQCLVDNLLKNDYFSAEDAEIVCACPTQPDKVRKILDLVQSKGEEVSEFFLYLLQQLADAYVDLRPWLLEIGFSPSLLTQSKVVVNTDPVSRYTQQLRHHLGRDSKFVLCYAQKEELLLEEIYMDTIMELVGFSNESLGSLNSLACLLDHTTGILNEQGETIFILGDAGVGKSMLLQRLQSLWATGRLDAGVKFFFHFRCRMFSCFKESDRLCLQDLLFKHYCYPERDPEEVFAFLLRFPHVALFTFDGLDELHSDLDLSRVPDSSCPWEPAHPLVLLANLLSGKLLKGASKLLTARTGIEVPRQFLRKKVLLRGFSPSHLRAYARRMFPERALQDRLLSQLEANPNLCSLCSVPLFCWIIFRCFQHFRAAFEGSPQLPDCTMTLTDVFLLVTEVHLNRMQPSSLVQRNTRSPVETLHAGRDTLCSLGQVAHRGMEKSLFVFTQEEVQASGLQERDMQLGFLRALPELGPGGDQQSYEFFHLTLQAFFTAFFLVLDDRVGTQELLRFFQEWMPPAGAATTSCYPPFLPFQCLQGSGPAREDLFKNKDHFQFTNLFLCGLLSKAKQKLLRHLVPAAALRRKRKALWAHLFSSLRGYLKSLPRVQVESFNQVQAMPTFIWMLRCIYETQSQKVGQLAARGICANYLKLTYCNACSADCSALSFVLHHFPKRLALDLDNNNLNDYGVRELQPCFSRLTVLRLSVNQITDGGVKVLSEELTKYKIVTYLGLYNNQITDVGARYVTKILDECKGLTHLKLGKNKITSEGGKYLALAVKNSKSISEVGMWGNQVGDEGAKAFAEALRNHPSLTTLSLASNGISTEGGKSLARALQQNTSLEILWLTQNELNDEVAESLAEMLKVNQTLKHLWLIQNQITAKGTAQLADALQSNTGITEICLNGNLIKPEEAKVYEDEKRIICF

[10] = Shn3 3'UTR reporter inhibitors, dose response, cell-based, Clone20 osteoblasts, firefly luciferase, cherry-picked (AID 624132); assay type: functional;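 note: firefly luciferase luminescence from reporter carrying the Shn3 3'UTR in osteoblasts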
[11] = C. albicans growth with fluconazole, confirmation, fluorescence, retest (AID 2467); assay type: functional, cell-based
[12] = control 3'UTR Renilla luciferase suppression, dose response, counter-screen for Shn3 inhibitor project, cell-based, Clone20-Shn3RL, cherry-picked (AID 624133); assay type: functional
[13] = system: HEK293; experiment: cells; assay type: functional, cell-based; conditions: Homo sapiens; remark: listed apart in the source
[14] = system: HEK293; experiment: cells; conditions: Homo sapiens
[15] = NIH-3T3 fibroblast cytotoxicity, dose response, cytotoxicity control, cell-based, fluorescence, Alamar Blue, secondary assay (AID 2327); assay type: functional;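 note: NIH-3T3 mouse fibroblasts cultured with fluconazole at 8 µg/mL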
[16] = system: HEK293; experiment: cells; assay type: functional, cell-based; conditions: Homo sapiens; remark: listed apart in the source
[17] = system: HEK293; experiment: NOD1 signaling inhibitors, primary screen, cell-based, luminescence, uHTS (AID 1578); assay type: functional; conditions: Homo sapiens
[18] = target: ATP-dependent molecular chaperone HSP82 (Candida albicans (strain WO-1) (Yeast), UniProt C4YTQ8); experiment: loss of DOC-induced GRE-beta-galactosidase reporter signal, dose response, Hsp90 inhibitor project, S. cerevisiae, luminescence (AID 2400); assay type: functional, cell-based;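 note: beta-galactosidase luminescence from glucocorticoid response element reporter as proxy for Hsp90 function; inhibitor potency where signal loss means Hsp90 inhibition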
Sequence of ATP-dependent molecular chaperone HSP82 (C4YTQ8 whole entry): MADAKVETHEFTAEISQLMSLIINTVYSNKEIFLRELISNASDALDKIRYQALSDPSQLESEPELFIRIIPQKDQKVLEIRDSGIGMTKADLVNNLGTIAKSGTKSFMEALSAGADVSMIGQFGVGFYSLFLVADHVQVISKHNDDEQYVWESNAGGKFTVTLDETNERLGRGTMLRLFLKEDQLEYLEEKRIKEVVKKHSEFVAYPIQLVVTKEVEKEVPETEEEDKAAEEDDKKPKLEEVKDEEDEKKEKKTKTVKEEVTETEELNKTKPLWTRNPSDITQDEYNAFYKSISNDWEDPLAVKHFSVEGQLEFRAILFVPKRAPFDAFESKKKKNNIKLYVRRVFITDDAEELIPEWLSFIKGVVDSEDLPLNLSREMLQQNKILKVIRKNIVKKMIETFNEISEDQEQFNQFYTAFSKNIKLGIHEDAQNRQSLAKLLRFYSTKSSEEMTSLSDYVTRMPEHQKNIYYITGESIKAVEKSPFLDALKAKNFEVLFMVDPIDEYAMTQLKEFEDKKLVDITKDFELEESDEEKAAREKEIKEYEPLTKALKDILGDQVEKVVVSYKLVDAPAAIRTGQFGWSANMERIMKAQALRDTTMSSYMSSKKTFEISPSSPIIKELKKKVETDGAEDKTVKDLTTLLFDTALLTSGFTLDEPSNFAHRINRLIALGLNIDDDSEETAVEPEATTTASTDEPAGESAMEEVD

[19] = target: Polyadenylate-binding protein 1 (Homo sapiens, UniProt P11940); experiment: PABP inhibition in translation initiation, SAR follow-up (AID 435018); assay type: functional
Sequence of Polyadenylate-binding protein 1 (P11940 whole entry): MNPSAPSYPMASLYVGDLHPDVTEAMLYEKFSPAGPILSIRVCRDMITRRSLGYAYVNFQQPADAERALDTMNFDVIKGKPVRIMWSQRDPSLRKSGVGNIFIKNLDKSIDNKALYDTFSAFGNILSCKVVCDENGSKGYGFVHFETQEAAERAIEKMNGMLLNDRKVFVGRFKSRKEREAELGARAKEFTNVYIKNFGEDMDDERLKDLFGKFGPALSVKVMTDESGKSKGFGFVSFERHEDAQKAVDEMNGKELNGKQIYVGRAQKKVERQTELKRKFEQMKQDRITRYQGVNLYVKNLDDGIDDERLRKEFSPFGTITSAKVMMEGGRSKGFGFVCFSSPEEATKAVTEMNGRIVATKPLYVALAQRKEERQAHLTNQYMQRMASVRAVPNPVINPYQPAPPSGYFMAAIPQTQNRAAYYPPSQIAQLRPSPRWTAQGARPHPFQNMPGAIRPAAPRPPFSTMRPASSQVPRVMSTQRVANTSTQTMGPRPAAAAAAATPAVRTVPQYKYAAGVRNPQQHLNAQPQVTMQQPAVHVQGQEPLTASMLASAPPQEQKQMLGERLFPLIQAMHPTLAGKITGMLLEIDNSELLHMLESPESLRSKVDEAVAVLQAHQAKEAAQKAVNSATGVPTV

[20] = target: Eukaryotic translation initiation factor 4H (Homo sapiens, UniProt Q15056); experiment: eIF4H inhibition in translation initiation, SAR follow-up (AID 435011); assay type: functional
[21] = target: T3, E3 ubiquitin-protein ligase XIAP (Homo sapiens, UniProt P98170); experiment: XIAP antagonists, biochemical, IAP family, fluorescence polarization (AID 1018); assay type: functional
T3 sequence (P98170 whole entry): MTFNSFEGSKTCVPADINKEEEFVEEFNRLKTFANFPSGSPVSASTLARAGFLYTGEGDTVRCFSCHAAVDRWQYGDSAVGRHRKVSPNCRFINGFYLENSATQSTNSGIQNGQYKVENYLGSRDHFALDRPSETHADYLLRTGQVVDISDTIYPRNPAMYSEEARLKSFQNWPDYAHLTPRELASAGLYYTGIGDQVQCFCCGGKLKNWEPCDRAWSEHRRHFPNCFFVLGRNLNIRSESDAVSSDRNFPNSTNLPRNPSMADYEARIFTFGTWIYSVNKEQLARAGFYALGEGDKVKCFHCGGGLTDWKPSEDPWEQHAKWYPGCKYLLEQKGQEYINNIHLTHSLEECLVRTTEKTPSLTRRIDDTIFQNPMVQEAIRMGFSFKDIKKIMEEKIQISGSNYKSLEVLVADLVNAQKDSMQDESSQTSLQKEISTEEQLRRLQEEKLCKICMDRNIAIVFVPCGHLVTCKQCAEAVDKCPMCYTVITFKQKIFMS

[22] = target: T4, Corticotropin-releasing factor receptor 2/Corticotropin-releasing factor-binding protein (Homo sapiens, UniProt P24387+Q13324); experiment: activators of CRF receptor 2 with binding protein – uHTS hits, confirmation (AID 602473); assay type: functional; conditions: read-out: EC50_Mean
T4 sequence (Q13324 whole entry): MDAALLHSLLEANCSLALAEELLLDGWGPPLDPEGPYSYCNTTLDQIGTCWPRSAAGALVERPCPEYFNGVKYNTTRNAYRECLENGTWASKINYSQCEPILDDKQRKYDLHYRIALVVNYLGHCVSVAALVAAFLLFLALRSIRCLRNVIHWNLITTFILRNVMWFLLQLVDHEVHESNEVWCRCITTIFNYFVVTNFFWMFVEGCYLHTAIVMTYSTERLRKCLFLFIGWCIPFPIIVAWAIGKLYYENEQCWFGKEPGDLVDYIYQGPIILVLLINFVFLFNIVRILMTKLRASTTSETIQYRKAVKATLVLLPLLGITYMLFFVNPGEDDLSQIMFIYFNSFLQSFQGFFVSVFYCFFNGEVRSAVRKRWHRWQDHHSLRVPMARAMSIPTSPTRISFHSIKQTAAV
T4 sequence (P24387 whole entry): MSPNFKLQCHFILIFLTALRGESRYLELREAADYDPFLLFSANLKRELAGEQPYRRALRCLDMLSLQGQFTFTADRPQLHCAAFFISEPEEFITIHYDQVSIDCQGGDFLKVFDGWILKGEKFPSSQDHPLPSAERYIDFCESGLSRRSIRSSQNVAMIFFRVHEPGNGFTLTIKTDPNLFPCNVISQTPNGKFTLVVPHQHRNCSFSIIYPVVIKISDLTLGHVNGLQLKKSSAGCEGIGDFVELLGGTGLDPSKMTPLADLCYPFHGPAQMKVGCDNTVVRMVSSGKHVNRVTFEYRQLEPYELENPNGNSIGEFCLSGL

[23] = target: T3, E3 ubiquitin-protein ligase XIAP; experiment: Counter Screen using XIAP-Bir3 for Chemical Antagonists of Bir1/2 domains of IAP-family anti-apoptotic proteins. [Related pubchem assays (depositor defined):AID1018, AID1449, AID1514, AID1638, AID1749, AID1750, AID488957, AID488963]
[24] = target: T5, RNA-binding protein pos-1 (Caenorhabditis elegans, UniProt G5EF15); experiment: inhibitors of POS-1/mex-3 RNA binding, dose response, biochemical, fluorescence polarization (AID 1964);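 note: purified POS-1 fused to maltose binding protein made in E. coli; potency of compounds blocking POS-1 binding to fluorescent RNA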
T5 sequence (G5EF15 whole entry): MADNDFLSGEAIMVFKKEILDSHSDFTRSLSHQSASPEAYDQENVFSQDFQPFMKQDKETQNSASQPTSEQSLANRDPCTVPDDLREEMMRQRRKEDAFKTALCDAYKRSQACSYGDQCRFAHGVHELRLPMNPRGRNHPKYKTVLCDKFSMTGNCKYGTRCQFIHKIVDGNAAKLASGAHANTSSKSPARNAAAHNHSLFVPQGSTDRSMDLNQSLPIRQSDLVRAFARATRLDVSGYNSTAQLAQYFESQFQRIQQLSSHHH

[25] = target: T6, Zinc finger protein mex-5 (Caenorhabditis elegans, UniProt Q9XUB2); experiment: MEX-5/TCR-2 RNA interaction inhibitors, dose response, biochemical, C. elegans, fluorescence polarization (AID 1960)
T6 sequence (Q9XUB2 whole entry): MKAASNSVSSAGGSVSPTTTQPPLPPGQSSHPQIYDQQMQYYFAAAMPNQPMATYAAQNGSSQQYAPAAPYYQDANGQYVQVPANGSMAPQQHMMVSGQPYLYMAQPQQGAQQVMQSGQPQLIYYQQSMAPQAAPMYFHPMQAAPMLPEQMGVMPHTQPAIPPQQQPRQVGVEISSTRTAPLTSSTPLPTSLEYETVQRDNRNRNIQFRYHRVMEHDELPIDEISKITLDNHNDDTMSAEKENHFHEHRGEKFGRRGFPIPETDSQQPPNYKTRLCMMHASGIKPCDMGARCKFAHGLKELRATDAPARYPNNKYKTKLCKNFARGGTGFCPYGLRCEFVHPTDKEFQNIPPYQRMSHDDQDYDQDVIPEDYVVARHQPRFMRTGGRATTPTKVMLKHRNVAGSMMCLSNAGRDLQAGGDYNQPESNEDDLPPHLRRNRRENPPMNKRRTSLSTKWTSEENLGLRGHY

[26] = target: Cytochrome P450 2C19 (Homo sapiens, UniProt P33261); experiment: Cytochrome panel assay with activity outcomes. Panel member name: p450-cyp2c19 Compounds with AC50 equal or less than 10 uM are considered active; assay type: functional
Sequence of Cytochrome P450 2C19 (P33261 whole entry): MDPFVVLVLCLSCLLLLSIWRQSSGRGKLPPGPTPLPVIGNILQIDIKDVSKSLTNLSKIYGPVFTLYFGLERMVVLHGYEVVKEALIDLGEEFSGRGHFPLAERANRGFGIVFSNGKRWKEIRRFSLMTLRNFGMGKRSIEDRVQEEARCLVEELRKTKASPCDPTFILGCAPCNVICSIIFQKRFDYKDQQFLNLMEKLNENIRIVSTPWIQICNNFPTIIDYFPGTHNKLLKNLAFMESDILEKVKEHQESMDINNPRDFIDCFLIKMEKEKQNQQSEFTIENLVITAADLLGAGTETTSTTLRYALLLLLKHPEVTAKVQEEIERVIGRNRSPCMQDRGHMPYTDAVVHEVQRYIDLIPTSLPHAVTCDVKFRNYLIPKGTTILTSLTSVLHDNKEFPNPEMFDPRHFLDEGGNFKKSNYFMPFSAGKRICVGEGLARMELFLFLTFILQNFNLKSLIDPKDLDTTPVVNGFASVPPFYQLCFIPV

[27] = target: Cytochrome P450 3A4 (Homo sapiens, UniProt P08684);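 note: CYP3A4 tested as one member of a cytochrome P450 panel screen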
Sequence of Cytochrome P450 3A4 (P08684 whole entry): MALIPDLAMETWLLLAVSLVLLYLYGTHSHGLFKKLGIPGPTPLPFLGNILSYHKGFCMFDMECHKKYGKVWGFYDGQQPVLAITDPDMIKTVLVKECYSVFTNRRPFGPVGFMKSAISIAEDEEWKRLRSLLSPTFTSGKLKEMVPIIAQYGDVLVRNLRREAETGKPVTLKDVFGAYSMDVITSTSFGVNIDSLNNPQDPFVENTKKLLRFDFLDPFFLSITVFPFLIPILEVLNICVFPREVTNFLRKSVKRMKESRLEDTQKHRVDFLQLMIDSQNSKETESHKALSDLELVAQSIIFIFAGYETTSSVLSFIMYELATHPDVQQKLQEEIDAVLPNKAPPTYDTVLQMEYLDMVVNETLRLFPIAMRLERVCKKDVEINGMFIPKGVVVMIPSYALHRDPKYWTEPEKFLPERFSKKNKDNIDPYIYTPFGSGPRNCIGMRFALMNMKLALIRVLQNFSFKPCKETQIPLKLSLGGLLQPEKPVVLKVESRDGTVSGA

Sequence of DNA dC->dU-editing enzyme APOBEC-3A (P31941 whole entry): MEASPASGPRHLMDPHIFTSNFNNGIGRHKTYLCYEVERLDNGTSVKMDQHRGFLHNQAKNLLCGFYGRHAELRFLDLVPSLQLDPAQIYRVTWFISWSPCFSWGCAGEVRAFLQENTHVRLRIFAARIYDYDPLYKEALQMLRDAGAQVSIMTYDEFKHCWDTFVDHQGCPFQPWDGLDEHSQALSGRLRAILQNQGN

SMILES: CCCCn1c(S)nnc1-c1ccc([N+](=O)[O-])cc1
- IC50 [1]: > 100 µM (inactive)
- IC50 [2]: 3.5 µM (active)

SMILES: O=C(c1ccc(Cn2c(=S)[nH]c3ccccc3c2=O)cc1)N1CCN(c2ccccn2)CC1
- IC50 [3]: 7.1 µM (active)
- IC50 [4]: 7.61 µM (active)
- EC50 [5]: 5.49 µM (active)
- AC50 [6]: 59.2 µM (active)
- EC50 [7]: > 180 µM (inactive)
- IC50 [8]: > 20 µM (inactive)
- IC50 [9]: 5.3 µM (active)
- AC50 [10]: 6.34 µM (active)
- EC50 [11]: 0.549 µM (active)
- AC50 [12]: 31.4 µM (active)
- IC50 [13]: 6.05 µM (active)
- IC50 [14]: 12.6 µM (active)
- EC50 [15]: 12.4 µM (inconclusive)
- IC50 [16]: 13.9 µM (active)
- EC50 [17]: 9 µM (active)
- EC50 [18]: > 150 µM (inactive)

SMILES: O=C(COc1ccc(C=NNC(=O)c2ccccc2O)cc1)Nc1ccccc1
- IC50 [19]: > 100 µM (inactive)
- IC50 [20]: > 100 µM (inactive)

SMILES: CCn1c(CCNC(=O)c2ccc(OC)cc2)nnc1SCc1ccc(Cl)c(Cl)c1
- IC50 [21]: > 100 µM (not active)
- EC50 [22]: > 53 µM (inactive)
- IC50 [23]: > 100 µM (inactive)

SMILES: C=CCn1c(S)nnc1-c1sc2nc(C)cc(C)c2c1N
- IC50 [1]: > 100 µM (inactive)
- IC50 [2]: 3.28 µM (active)

SMILES: CC(C)(C)c1ccc(C(=O)Nc2cccc3ncccc23)cc1
- IC50 [19]: 1.32 µM (active)
- EC50 [24]: 8.65 µM (active)
- IC50 [20]: 1.14 µM (active)
- EC50 [25]: 5.39 µM (active)

SMILES: OCC1(CCc2ccccc2)CCN(Cc2ccc(OC(F)F)cc2)CC1
- IC50 [21]: > 100 µM (not active)
- IC50 [23]: > 100 µM (inactive)

SMILES: COc1ccccc1N=C1SC(C(=O)Nc2ccccc2)CC(=O)N1C (stereo unspecified)
- IC50 [19]: > 100 µM (inactive)
- IC50 [20]: > 100 µM (inactive)

SMILES: CCOC(=O)N/N=C/c1ccc(Oc2ccccc2)cc1
- IC50 [21]: > 100 µM (not active)
- IC50 [23]: > 100 µM (inactive)

SMILES: Cc1nnc(S)n1/N=C/c1ccc(Br)o1
- IC50 [1]: > 100 µM (inactive)
- AC50 [26]: inconclusive
- IC50 [2]: 6.93 µM (active)
- AC50 [27]: 25.1 µM (inconclusive)

SMILES: Sc1nc(-c2ccccc2)cn1/N=C/c1ccncc1
- IC50 [1]: > 100 µM (inactive)
- IC50 [2]: 2.93 µM (active)
